For 1 molecule, IC50 results are on record in article PMC3210610, “Studies on Synthesis and Structure-Activity Relationship (SAR) of Derivatives of a New Natural Product from Marine Fungi as Inhibitors of Influenza Virus Neuraminidase” (Marine Drugs, 2011).

The target in assay [1] is neuraminidase (NA) of A/GuangdongSB/01/2009 (H1N1) (Influenza A virus (A/Managua/5248.03/2009(H1N1)), UniProt E0V7D1). Conditions: 0.15 mM 4-MUNANA, MES pH 6.5, 4 mM CaCl2, 37 °C, 1 h preincubation; Figure 2 legend says chemiluminescence assay.
For assay [2], the target named is neuraminidase (NA) of A/Guangdong/05/2009 (H1N1) (Influenza A virus (A/Managua/5248.03/2009(H1N1)), UniProt E0V7D1). Conditions: 0.15 mM 4-MUNANA, MES pH 6.5, 4 mM CaCl2, 37 °C, 1 h preincubation; Figure 2 legend says chemiluminescence assay.

Structures are written as SMILES.

As for `C=CCOc1cc(C=O)ccc1O` [compound 15, 3-(allyloxy)-4-hydroxybenzaldehyde], the IC50 in assay [1] amounted to 27 µM; in assay [2] it was 25.1 µM.

Broadly, the IC50 is the concentration that gives 50% inhibition. Low readings indicate greater potency, high ones weaker potency.
